According to ChEMBL document CHEMBL3991601, “The target landscape of clinical kinase drugs” (Science, 2017):
Calls of active or inactive are those of the source. For most assays here, no stated cut-off is given here; in the data, actives have a measured Kd and inactives only a lower limit.

How the values were obtained:
[1] = target: T1, Phosphatidylinositol 5-phosphate 4-kinase type-2 gamma (Homo sapiens, UniProt Q8TBX8)
T1 sequence (Q8TBX8 whole entry): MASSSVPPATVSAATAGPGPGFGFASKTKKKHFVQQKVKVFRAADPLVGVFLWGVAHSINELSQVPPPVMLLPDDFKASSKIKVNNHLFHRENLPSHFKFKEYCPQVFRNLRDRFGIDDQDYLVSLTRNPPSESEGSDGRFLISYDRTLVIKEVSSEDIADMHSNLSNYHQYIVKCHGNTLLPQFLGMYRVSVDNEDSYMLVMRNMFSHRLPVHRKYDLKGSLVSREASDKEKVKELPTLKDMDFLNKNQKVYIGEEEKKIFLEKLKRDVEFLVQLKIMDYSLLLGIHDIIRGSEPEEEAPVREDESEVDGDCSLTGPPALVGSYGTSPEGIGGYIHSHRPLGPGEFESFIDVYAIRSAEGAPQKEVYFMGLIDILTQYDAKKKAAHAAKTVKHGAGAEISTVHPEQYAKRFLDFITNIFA

[2] = target: RAC-gamma serine/threonine-protein kinase (Homo sapiens, UniProt Q9Y243)
Ephrin type-A receptor 2 = Ephrin type-A receptor 2 (Homo sapiens, UniProt P29317)
[3] = target: Epithelial discoidin domain-containing receptor 1 (Homo sapiens, UniProt Q08345)
Epithelial discoidin domain-containing receptor 1, sequence (Q08345 whole entry, the tested form may be a part): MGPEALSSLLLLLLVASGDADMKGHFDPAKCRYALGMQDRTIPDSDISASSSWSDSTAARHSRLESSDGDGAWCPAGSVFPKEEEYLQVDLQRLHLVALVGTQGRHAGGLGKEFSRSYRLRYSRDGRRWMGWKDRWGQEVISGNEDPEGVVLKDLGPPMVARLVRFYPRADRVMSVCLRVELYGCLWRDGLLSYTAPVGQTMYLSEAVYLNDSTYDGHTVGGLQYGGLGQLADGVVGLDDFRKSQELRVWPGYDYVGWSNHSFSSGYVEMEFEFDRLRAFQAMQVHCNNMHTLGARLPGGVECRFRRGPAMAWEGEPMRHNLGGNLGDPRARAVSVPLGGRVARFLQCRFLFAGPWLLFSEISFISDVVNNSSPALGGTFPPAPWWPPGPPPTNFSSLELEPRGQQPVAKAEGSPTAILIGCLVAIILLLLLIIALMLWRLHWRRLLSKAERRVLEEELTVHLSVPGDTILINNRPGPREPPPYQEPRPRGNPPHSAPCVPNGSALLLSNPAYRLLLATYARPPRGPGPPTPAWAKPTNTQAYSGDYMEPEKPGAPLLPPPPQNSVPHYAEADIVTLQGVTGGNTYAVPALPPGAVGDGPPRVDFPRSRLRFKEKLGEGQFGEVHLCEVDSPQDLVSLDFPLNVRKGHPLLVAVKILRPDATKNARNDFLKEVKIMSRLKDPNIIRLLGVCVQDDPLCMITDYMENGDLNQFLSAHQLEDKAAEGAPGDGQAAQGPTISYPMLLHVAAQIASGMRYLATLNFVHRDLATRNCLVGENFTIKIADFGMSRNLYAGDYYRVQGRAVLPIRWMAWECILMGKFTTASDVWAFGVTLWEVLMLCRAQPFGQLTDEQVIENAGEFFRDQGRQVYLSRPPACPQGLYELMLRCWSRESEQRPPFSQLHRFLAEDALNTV

[4] = target: Tyrosine-protein kinase Lck (Homo sapiens, UniProt P06239)
[5] = target: T2, Serine/threonine-protein kinase Nek3 (Homo sapiens, UniProt P51956)
T2 sequence (P51956 whole entry): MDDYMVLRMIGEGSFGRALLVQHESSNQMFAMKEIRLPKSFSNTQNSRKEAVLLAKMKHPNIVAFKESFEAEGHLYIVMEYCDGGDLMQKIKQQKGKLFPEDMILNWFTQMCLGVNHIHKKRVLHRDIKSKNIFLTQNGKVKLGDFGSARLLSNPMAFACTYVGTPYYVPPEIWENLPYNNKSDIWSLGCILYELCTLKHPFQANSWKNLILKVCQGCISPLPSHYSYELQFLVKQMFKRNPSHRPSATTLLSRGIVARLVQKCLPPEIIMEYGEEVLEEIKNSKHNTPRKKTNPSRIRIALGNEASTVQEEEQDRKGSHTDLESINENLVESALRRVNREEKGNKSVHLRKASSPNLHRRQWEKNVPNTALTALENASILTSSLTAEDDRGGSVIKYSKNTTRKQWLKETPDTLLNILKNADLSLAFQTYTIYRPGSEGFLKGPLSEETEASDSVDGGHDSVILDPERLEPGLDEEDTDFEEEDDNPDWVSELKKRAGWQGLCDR

[6] = target: Chromodomain-helicase-DNA-binding protein 4 (Homo sapiens, UniProt Q14839)
Chromodomain-helicase-DNA-binding protein 4, sequence (Q14839 whole entry): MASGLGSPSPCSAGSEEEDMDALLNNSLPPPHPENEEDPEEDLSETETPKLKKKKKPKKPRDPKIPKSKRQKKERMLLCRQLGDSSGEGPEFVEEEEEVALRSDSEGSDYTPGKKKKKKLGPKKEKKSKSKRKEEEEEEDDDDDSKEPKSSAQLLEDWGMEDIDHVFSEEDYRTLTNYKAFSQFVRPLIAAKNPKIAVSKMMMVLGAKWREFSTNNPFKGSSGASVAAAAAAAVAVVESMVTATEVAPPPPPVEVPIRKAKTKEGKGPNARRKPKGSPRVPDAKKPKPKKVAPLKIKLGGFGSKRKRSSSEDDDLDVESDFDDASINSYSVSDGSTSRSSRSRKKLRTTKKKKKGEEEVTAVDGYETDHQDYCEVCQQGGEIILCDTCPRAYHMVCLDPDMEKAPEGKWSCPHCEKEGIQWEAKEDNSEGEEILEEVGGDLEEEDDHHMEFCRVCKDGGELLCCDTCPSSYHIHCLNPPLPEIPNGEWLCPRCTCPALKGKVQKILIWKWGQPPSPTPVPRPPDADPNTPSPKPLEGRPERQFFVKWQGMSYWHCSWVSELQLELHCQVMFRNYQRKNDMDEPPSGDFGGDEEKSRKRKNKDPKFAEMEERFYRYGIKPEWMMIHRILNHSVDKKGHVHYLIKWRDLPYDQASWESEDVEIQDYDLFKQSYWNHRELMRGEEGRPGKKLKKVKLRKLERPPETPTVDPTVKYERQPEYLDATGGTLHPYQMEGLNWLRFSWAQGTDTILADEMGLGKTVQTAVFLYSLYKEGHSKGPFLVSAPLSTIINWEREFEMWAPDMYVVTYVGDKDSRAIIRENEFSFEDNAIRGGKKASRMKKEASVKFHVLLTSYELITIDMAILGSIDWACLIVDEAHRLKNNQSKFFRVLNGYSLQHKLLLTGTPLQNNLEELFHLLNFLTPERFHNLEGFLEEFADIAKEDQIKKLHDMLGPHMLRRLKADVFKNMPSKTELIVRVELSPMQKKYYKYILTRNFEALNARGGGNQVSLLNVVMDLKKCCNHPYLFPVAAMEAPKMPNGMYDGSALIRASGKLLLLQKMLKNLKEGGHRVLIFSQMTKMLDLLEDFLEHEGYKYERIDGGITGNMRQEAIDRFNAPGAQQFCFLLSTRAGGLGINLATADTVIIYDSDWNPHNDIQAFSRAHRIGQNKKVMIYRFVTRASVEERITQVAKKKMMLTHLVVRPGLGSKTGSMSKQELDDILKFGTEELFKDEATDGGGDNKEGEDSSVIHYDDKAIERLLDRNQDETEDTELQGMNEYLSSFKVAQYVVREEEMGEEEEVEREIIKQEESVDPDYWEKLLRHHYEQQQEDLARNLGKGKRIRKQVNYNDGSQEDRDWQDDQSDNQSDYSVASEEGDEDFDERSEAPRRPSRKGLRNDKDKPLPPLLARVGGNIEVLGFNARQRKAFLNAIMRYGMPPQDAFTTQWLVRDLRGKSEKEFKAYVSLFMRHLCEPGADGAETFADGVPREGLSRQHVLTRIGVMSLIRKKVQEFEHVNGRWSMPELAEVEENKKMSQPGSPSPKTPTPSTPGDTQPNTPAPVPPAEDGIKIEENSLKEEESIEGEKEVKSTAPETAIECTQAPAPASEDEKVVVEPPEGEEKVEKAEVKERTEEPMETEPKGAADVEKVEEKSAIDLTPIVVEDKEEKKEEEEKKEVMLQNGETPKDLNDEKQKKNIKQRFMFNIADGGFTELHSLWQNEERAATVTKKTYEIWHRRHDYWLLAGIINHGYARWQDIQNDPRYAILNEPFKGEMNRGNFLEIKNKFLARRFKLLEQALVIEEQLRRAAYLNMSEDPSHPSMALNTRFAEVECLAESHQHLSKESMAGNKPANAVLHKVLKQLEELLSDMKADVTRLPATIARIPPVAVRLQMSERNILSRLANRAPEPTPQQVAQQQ

[7] = target: T3, Ribosyldihydronicotinamide dehydrogenase [quinone] (Homo sapiens, UniProt P16083)
T3 sequence (P16083 whole entry): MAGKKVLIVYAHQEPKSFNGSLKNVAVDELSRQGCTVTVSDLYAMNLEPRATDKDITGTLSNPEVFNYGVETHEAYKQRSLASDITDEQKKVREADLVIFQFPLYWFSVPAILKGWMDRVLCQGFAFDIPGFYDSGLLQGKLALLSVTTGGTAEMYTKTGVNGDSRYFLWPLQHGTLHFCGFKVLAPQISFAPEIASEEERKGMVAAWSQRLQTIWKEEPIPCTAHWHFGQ

[8] = target: Mitogen-activated protein kinase kinase kinase 20 (Homo sapiens, UniProt Q9NYL2)
Ephrin type-A receptor 1 = target: T4, Ephrin type-A receptor 1 (Homo sapiens, UniProt P21709)
T4 sequence (P21709 whole entry): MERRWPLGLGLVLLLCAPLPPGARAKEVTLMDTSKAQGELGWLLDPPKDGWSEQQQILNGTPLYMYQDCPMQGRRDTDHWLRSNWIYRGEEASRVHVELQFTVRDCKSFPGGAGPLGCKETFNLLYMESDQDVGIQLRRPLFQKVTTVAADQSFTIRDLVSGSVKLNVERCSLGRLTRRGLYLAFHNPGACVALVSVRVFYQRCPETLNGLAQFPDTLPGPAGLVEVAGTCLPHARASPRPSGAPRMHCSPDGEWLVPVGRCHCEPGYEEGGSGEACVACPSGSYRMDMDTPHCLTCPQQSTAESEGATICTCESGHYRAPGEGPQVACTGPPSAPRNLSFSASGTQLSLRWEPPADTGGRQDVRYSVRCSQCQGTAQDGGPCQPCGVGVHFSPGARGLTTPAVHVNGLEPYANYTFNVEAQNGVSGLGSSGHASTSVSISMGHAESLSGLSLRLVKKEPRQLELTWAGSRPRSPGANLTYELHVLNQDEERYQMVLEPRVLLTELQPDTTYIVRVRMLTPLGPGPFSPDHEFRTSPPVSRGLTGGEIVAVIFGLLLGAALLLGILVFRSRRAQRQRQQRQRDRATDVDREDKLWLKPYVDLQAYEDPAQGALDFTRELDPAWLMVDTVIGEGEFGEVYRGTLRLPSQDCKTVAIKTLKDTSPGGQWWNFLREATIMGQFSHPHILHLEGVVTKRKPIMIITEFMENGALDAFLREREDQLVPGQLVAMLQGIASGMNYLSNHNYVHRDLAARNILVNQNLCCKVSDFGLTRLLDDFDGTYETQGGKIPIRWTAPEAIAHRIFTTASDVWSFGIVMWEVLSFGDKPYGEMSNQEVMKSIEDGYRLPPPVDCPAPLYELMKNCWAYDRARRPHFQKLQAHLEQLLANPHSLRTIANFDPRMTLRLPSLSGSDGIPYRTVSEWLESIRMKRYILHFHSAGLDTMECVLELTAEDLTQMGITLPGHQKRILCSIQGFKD

[9] = target: Citron Rho-interacting kinase (Homo sapiens, UniProt O14578)
[10] = target: Myosin light chain kinase, smooth muscle (Homo sapiens, UniProt Q15746)
Myosin light chain kinase, smooth muscle, sequence (Q15746 whole entry): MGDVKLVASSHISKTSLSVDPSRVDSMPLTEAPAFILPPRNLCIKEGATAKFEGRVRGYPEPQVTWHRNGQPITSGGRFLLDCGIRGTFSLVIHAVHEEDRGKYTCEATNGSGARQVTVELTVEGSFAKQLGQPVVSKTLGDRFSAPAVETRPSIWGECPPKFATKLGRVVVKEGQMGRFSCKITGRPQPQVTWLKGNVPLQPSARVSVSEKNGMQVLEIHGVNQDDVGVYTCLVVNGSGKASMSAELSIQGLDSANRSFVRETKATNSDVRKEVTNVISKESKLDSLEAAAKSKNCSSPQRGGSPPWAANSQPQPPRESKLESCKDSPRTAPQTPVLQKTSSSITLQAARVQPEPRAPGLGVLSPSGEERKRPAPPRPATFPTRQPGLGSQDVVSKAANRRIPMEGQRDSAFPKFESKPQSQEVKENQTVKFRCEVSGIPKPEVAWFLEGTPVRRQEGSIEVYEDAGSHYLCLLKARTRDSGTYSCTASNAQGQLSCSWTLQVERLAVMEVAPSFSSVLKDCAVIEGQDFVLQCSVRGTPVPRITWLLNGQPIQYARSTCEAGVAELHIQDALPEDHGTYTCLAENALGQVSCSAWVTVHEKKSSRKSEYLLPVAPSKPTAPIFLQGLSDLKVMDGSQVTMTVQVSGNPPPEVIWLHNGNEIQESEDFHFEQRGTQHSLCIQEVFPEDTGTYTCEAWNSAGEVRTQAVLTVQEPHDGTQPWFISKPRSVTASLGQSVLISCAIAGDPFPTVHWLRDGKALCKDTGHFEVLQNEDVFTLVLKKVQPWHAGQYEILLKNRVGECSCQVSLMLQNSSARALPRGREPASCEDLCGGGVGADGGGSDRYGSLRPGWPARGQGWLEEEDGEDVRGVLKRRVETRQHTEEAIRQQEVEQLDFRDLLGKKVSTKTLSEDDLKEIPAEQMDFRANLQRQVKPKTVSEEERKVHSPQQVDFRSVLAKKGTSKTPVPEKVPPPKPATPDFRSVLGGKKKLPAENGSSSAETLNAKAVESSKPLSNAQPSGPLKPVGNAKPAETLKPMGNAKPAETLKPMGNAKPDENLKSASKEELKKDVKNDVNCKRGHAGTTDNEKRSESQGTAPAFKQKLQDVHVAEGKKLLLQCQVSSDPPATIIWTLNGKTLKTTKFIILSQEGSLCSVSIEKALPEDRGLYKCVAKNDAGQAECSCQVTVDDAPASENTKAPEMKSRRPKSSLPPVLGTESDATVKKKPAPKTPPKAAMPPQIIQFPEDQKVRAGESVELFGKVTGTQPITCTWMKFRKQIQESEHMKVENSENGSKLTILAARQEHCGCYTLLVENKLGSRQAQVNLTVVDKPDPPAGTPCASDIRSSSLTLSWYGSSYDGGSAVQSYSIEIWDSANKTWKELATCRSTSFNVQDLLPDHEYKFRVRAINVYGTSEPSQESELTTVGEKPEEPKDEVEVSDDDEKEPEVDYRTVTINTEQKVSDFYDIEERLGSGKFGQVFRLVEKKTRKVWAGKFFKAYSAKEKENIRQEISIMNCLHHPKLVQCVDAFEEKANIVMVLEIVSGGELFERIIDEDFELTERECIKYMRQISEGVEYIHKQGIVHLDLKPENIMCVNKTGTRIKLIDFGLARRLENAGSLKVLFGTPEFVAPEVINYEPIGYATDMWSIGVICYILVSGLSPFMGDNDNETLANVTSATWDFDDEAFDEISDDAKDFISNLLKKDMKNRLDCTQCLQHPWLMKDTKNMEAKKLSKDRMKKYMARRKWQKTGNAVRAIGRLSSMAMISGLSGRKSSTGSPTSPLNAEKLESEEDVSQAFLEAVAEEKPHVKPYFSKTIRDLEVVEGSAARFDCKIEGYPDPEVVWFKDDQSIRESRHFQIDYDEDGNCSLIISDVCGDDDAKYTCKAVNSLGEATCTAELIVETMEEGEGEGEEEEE

| Kd [1] | Kd [2] | Kd (Ephrin type-A receptor 2) | Kd [3] | Kd [4] | Kd [5] | Kd [6] | Kd [7] | Kd [8] | Kd (Ephrin type-A receptor 1) | Kd [9] | Kd [10] | Structure (SMILES) |
| --- | --- | --- | --- | --- | --- | --- | --- | --- | --- | --- | --- | --- |
| > 30 µM (inactive) | > 30 µM (inactive) | > 30 µM (inactive) | > 30 µM (inactive) | > 30 µM (inactive) | > 30 µM (inactive) |  | > 30 µM (inactive) | > 30 µM (inactive) | > 30 µM (inactive) | > 30 µM (inactive) | > 30 µM (inactive) | Nc1ncnc2c1c(-c1cccc(OCc3ccccc3)c1)cn2[C@H]1C[C@@H](CN2CCC2)C1 [AEW-541] |
| > 30 µM (inactive) | > 30 µM (inactive) | > 30 µM (inactive) | > 30 µM (inactive) | > 30 µM (inactive) | > 30 µM (inactive) | > 30 µM (inactive) | 5.86 µM (active) | > 30 µM (inactive) | > 30 µM (inactive) | > 30 µM (inactive) | > 30 µM (inactive) | CCn1c(C(=O)N(C2CC2)C2CC2)cc2c3c(ncn3C)c(Nc3cc(C)n(C)n3)nc21 [BMS-911543] |
| > 30 µM (inactive) | > 30 µM (inactive) | > 30 µM (inactive) | > 30 µM (inactive) | > 30 µM (inactive) | > 30 µM (inactive) | > 30 µM (inactive) | > 30 µM (inactive) | > 30 µM (inactive) | > 30 µM (inactive) | > 30 µM (inactive) | > 30 µM (inactive) | COCC(=O)NC/C=C/c1ccc2ncnc(Nc3ccc(Oc4ccc(C)nc4)c(C)c3)c2c1 [CP-724714] |
| > 30 µM (inactive) | > 30 µM (inactive) | > 30 µM (inactive) | > 30 µM (inactive) | > 30 µM (inactive) | > 30 µM (inactive) | > 30 µM (inactive) | > 30 µM (inactive) | > 30 µM (inactive) | > 30 µM (inactive) | > 30 µM (inactive) | > 30 µM (inactive) | C#Cc1cccc(Nc2ncnc3cc(OC)c(OCCCCCCC(=O)NO)cc23)c1 [CUDC-101] |

Second part, the molecule before the results:

| Structure (SMILES) | Kd [1] | Kd [2] | Kd (Ephrin type-A receptor 2) | Kd [3] | Kd [4] | Kd [5] | Kd [6] | Kd [7] | Kd [8] | Kd (Ephrin type-A receptor 1) | Kd [9] | Kd [10] |
| --- | --- | --- | --- | --- | --- | --- | --- | --- | --- | --- | --- | --- |
| CC(=O)c1cnc2ccc(-c3cc(Cl)c(O)c(Cl)c3)nc2c1N[C@H]1CC[C@H](CN(C)C)CC1 | 0.003 µM | > 30 µM (inactive) | 0.11 µM (active) | 0.515 µM (active) | 0.073 µM (active) | > 30 µM (inactive) | > 30 µM (inactive) | > 30 µM (inactive) | 0.101 µM (active) | 0.091 µM (active) | 0.098 µM (active) | > 30 µM (inactive) |
| C=CC(=O)N1CCC[C@H](n2c(=O)n(-c3ccc(Oc4ccccc4)cc3)c3c(N)ncnc32)C1 | > 30 µM (inactive) | > 30 µM (inactive) | > 30 µM (inactive) | > 30 µM (inactive) | 0.005 µM | > 30 µM (inactive) |  | > 30 µM (inactive) | > 30 µM (inactive) | > 30 µM (inactive) | > 30 µM (inactive) | > 30 µM (inactive) |
| Cc1nc2cc(-c3nn(C(C)C)c4ncnc(N)c34)ccc2o1 | > 30 µM (inactive) | > 30 µM (inactive) | > 30 µM (inactive) | 0.881 µM (active) | > 30 µM (inactive) | > 30 µM (inactive) | > 30 µM (inactive) | > 30 µM (inactive) | > 30 µM (inactive) | > 30 µM (inactive) | > 30 µM (inactive) | > 30 µM (inactive) |
| COCc1c(-c2ccc(NC(=O)Nc3cc(C(F)(F)F)ccc3F)c(F)c2)c2c(N)ncnn2c1CN1CCOCC1 | > 30 µM (inactive) | > 30 µM (inactive) | > 30 µM (inactive) | 0.314 µM (active) | > 30 µM (inactive) | > 30 µM (inactive) | > 30 µM (inactive) | > 30 µM (inactive) | > 30 µM (inactive) | > 30 µM (inactive) | > 30 µM (inactive) | > 30 µM (inactive) |
| C=CC(=O)Nc1cc2c(Nc3ccc(F)c(Cl)c3)ncnc2cc1C#CC(C)(C)N1CCN(C)CC1 [AV-412 FREE BASE] | > 30 µM (inactive) | > 30 µM (inactive) | > 30 µM (inactive) | > 30 µM (inactive) | > 30 µM (inactive) | > 30 µM (inactive) | > 30 µM (inactive) | > 30 µM (inactive) | > 30 µM (inactive) | > 30 µM (inactive) | > 30 µM (inactive) | > 30 µM (inactive) |
| COc1cc([C@@H]2c3cc4c(cc3[C@H](O)[C@H]3COC(=O)[C@@H]23)OCO4)cc(OC)c1OC [AXL-1717] | > 30 µM (inactive) | > 30 µM (inactive) | > 30 µM (inactive) | > 30 µM (inactive) | > 30 µM (inactive) | > 30 µM (inactive) | > 30 µM (inactive) | > 30 µM (inactive) | > 30 µM (inactive) | > 30 µM (inactive) | > 30 µM (inactive) | > 30 µM (inactive) |
| Cn1cnc2c(F)c(Nc3ccc(Br)cc3F)c(C(=O)NOCCO)cc21 [BINIMETINIB] | > 30 µM (inactive) | > 30 µM (inactive) | > 30 µM (inactive) | > 30 µM (inactive) | > 30 µM (inactive) | > 30 µM (inactive) | > 30 µM (inactive) | 14.7 µM (active) | > 30 µM (inactive) | > 30 µM (inactive) | > 30 µM (inactive) | > 30 µM (inactive) |
| Cc1cc(Nc2ncc(Cl)c(Nc3ccccc3S(=O)(=O)C(C)C)n2)c(OC(C)C)cc1C1CCNCC1 [CERITINIB] | > 30 µM (inactive) | > 30 µM (inactive) | > 30 µM (inactive) | > 30 µM (inactive) | > 30 µM (inactive) | > 30 µM (inactive) | > 30 µM (inactive) | > 30 µM (inactive) | > 30 µM (inactive) | > 30 µM (inactive) | > 30 µM (inactive) | > 30 µM (inactive) |
| CNC(=O)c1cccc2cc(Oc3ccnc4cc(OCC5(N)CC5)c(OC)cc34)ccc12 [LUCITANIB] | > 30 µM (inactive) | > 30 µM (inactive) | > 30 µM (inactive) | 0.014 µM (active) | > 30 µM (inactive) | > 30 µM (inactive) | > 30 µM (inactive) | > 30 µM (inactive) | > 30 µM (inactive) | > 30 µM (inactive) | > 30 µM (inactive) |  |
